Laboratory results: patent US4769389A, “Oxygenated-alkyl derivatives of glutamic and aspartic acids with antagonistic activity to bio-active polypeptides and a method for their preparation” (priority 1985, dated 1988)
Values after ≈ are worked out from the molar mass of the structure shown. Where two headings read alike, the source gives them in different places.

How the values were obtained:
[1] = tested on: pancreatic adenocarcinoma; assay: Inhibiting action on rate of growth of a pancreatic adenocarcinoma induced by CCK-8 in hamsters; format: in vivo
Text: (§1) Male hamsters were innoculated in the cheek pouch with a suspension of 1×10^5 tumour cells of a pancreatic adenocarcinoma.
(§2) Fifteen days after this treatment the animals were killed and the normal pancreas and the pancreatic tumours initiated in the cheek pouch were removed and weighed.
(§3) The DNA was extracted and measured by conventional methods.
(§4) The results obtained are given in Table 11 in which they are expressed as average values±S.E.

normal pancreatic cells = assay: Action on growth rate of normal pancreas induced by CCK-8 in hamsters; format: in vivo
Text: as §1, §2, §3, §4

guinea-pig gallbladder = assay: Anti-CCK activity on guinea-pig gallbladders in vitro (contraction by CCK-8)
Experimental: ANTI-CCK ACTIVITY ON GUINEA-PIG GALLBLADDERS IN VITRO A longitudinal strip of guinea-pig gallbladder is placed in a bath for isolated organs in Krebs at a temperature of 32° C. and oxygenated continuously with an oxygen-CO2 mixture (95-[…]). The isometric contractions were detected by means of a force transducer and recorded. […] The results obtained are shown in Table 3 which gives the compounds tested and the IC50 values found which were calculated by the method of regression in a test of at least three experiments for each compound studied.

digestive tract = assay: Antispastic activity, vegetable carbon test (speed of transit through stomach and intestine) in mice; format: in vivo; settings: Mus musculus, ip, read-out: A[…] ED50 (dose which reduces the intestinal transit time of the carbon by 50%), intraperitoneally
Text: The anti-spastic activity which the present compounds exert on the whole of the digestive tract is also considerable. Measured in mice with the vegetable carbon test (speed of transit through the stomach and intestine) this activity is illustrated in the following table: […]

[2] = tested on: pancreatitis in mice induced experimentally by cerulein; assay: Pancreatitis induced by cerulein in mice; format: in vivo; settings: for ED50: Mus musculus, ip, cerulein, mice
Experimental: Adult male mice received six injections of cerulein (Takus) (50 mcg/kg) each hour for six hours.
The compound was administered 30 minutes before each administration of cerulein. Nine hours after the beginning of the treatment, the blood was taken from the rectro-orbitory plexus after anaesthesia with ether, the animals were killed and the pancreas removed and weighed.

colon of rabbits = assay: Antispastic activity in the colon of rabbits stimulated with CCK-8; format: in vivo, rabbit; parameters: Antispastic activity in colon, EXPERIMENT 1 / Antispastic activity in colon, EXPERIMENT 2: unit not given here; settings: CCK 100 ng/kg
Experimental: The abdomen of anaesthetised rabbit is cut open to display the tranverse colon. A small balloon full of water is inserted at an established point and connected to a pressure transducer by means of a polyethylene cannula filled with H2 O.
The optimum sensitivity being fixed in relation to the physiological contractions, the products were administered through the femeral vein. Contractions were induced by the administration of 100 ng/kg of CCK.

in vivo = settings: mouse, iv
[3] = tested on: pancreatitis in rats induced experimentally by taurocholate; assay: Pancreatitis induced by sodium taurocolate in rats; format: in vivo; settings: for ED50: Rattus norvegicus, ip, taurocholate, rats
Experimental: The products under examination were administered intraperitoneally (i.p.) 30 minutes before the operation and 3 hours after the operation. Six hours after the laparatomy the blood was removed from the retro-orbitory plexus after anaesthesia with ether, the animals were killed and the pancreas was removed and weighed. The activity of the serum amylase was determined by the method described above.

guinea pig gall bladders = assay: Anti-CCK-8 activity on guinea-pig gallbladders in situ (in vivo); settings: Cavia porcellus, iv; CCK-8 10 ng/kg i.v.; compound i.v.; read-out: ID50, anti-CCK-8 activity in situ
Experimental: In order to confirm the evidence of the studies in vitro, several of the more interesting compounds were tested in vivo with the use of guinea-pig gallbladders in situ.
The method used was that described by Ljungberg (Svensk. Farm. Tidskr. 69, 351-354, 1964).
Guinea-pigs having a weight of about 400 g anaesthetised with urethane were used; the substances being tested were administered intravenously (i.v.) into the jugular vein.
The responses of the gallbladder to the substances being tested were detected by means of a force transducer and recorded by means of a microdynamometer. 10 ng/kg of CCK 8 were chosen as the optimum contracting dose. The antagonistic compounds tested were administered in increasing doses so as to enable the calculation of an ID50 value, that is the dose (in mg/kg i.v.) having a 50% inhibiting effect against contractions induced by 10 ng/kg i.v. of CCK-8.

[4] = CCK-8 8 mcg/kg three times a day

## CCK-8: biologically active component of the hormone cholecystokinin [reference compound]
[1]; [4]
  TUMORAL DNA: 0.7
  WEIGHT OF THE PANCREATIC CARCINOMA: 163.1 ± 4.7 mg
[1]; in words
  effect on growth of a pancreatic adenocarcinoma: stimulates the growth of a pancreatic adenocacinoma
Normal pancreatic cells; [4]
  PANCREATIC DNA: 1.5 ± 0.06 mg
  WEIGHT OF THE PANCREAS: 634.8 ± 20.8 mg
Normal pancreatic cells; in words
  effect on normal pancreatic cells: has a trophic action on normal pancreatic cells

## CCCCCN(CCOCC)C(=O)C(CCC(=O)O)NC(=O)c1ccc(Cl)c(Cl)c1 (centres unmarked) [Compound 2]
guinea-pig gallbladder; Cavia porcellus, CCK-8 10 ng/ml, in vitro
  IC50: 0.1 µg/mL (≈ 0.217 µM)
guinea-pig gallbladder; vs CCK-8 10 ng/ml
  50% antagonising concentration relative to that of the specific agonist: about 10 times
Digestive tract
  ED50: 14 mg/kg
[2]; 5 mg/kg ip + cerulein
  AMYLASE IN THE SERUM: 54.7 U/ml
  INHIBITION OF WEIGHT INCREASE: 55.2%
  INHIBITION OF WEIGHT INCREASE (pancreas): 24.5%
  RATIO WEIGHT OF PANCREAS / ANIMAL WEIGHT: 0.54%
[2]; 7.5 mg/kg ip + cerulein
  AMYLASE IN THE SERUM: 21.7 U/ml
  INHIBITION OF WEIGHT INCREASE: 88.3%
  INHIBITION OF WEIGHT INCREASE (pancreas): 61.2%
  RATIO WEIGHT OF PANCREAS / ANIMAL WEIGHT: 0.45%
[2]; 10 mg/kg ip + cerulein
  AMYLASE IN THE SERUM: 11.8 U/ml
  INHIBITION OF WEIGHT INCREASE: 98.3%
  INHIBITION OF WEIGHT INCREASE (pancreas): 89.8%
  RATIO WEIGHT OF PANCREAS / ANIMAL WEIGHT: 0.38%
[2]; read-out: ED50 (inhibition of weight increase)
  ED50: 4.6 mg/kg
[2]; read-out: ED50, inhibition of weight increase of the pancreas
  ED50: 6.3 mg/kg
Colon of rabbits; 0.3 mg/kg i.v.
  Antispastic activity in colon, EXPERIMENT 1: -9.8
  Antispastic activity in colon, EXPERIMENT 2: -27.2
Colon of rabbits; 1 mg/kg i.v.
  Antispastic activity in colon, EXPERIMENT 1: -45.1
  Antispastic activity in colon, EXPERIMENT 2: -39.8
Colon of rabbits; 3 mg/kg i.v.
  Antispastic activity in colon, EXPERIMENT 1: -88.0
  Antispastic activity in colon, EXPERIMENT 2: -92.4
Colon of rabbits; Oryctolagus cuniculus, iv
  ED50: 1.47 mg/kg
In vivo
  LD50: 338 mg/kg
  selectivity ratio: 3380
[3]; 5 mg/kg i.p. + taurocholate
  AMYLASE IN THE SERUM: 10.6 U/ml
  INHIBITION OF AMYLASE INCREASE: 28.2%
  INHIBITION OF WEIGHT INCREASE: 44.4%
  RATIO WEIGHT OF PANCREAS / ANIMAL WEIGHT: 0.50%
[3]; 10 mg/kg i.p. + taurocholate
  AMYLASE IN THE SERUM: 8.9 U/ml
  INHIBITION OF AMYLASE INCREASE: 71.8%
  INHIBITION OF WEIGHT INCREASE: 63.0%
  RATIO WEIGHT OF PANCREAS / ANIMAL WEIGHT: 0.45%
[3]; 20 mg/kg i.p. + taurocholate
  AMYLASE IN THE SERUM: 7.7 U/ml
  INHIBITION OF AMYLASE INCREASE: 102.6%
  INHIBITION OF WEIGHT INCREASE: 74.1%
  RATIO WEIGHT OF PANCREAS / ANIMAL WEIGHT: 0.42%
[3]; read-out: ED50, inhibition of amylase increase
  ED50: 8.6 mg/kg
[3]; read-out: ED50, inhibition of weight increase
  ED50: 10.1 mg/kg
Guinea pig gall bladders
  ED50: 0.1 mg/kg
